Reference: ChEMBL document CHEMBL4184216, “Diversity oriented synthesis of chromene-xanthene hybrids as anti-breast cancer agents” (Bioorg Med Chem Lett, 2018)
Counter-ions that a name gives are not always drawn. The source made the active and inactive calls. The rule behind the calls is not given here.

How the values were obtained:
MDA-MB-231 [1] = test: Cytotoxicity against human MDA-MB-231 cells assessed as reduction in cell viability incubated for 24 hrs by MTT assay; format: functional, cell-based; conditions: MDA-MB-231, 24 h
MCF7 = test: Cytotoxicity against human MCF7 cells assessed as reduction in cell viability incubated for 24 hrs by MTT assay; format: functional, cell-based; conditions: MCF7, 24 h
HEK293 = test: Cytotoxicity against HEK293 cells assessed as reduction in cell viability incubated for 24 hrs by MTT assay; format: ADME, cell-based; conditions: Homo sapiens, HEK293, 24 h
MDA-MB-231 [2] = test: Cell cycle arrest in human MDA-MB-231 cells assessed as reduction in accumulation at G2/M phase at 0.125 to 0.25 uM incubated for 24 hrs by propidium iodide staining based flow cytometry; format: functional
MDA-MB-231 [3] = test: Cell cycle arrest in human MDA-MB-231 cells assessed as increase in accumulation at G1 phase at 0.125 to 0.25 uM incubated for 24 hrs by propidium iodide staining based flow cytometry; format: functional
MDA-MB-231 [4] = test: Cell cycle arrest in human MDA-MB-231 cells assessed as increase in accumulation at subG1 phase at 0.125 uM incubated for 24 hrs by propidium iodide staining based flow cytometry; format: functional
MDA-MB-231 [5] = test: Induction of apoptosis in human MDA-MB-231 cells at 0.125 to 0.25 uM incubated for 24 hrs by Annexin V-FITC/propidium iodide staining based flow cytometry; format: functional, cell-based

Row | Compound | IC50 (MDA-MB-231 [1]) [µM] | IC50 (MCF7) [µM] | IC50 (HEK293) [µM] | Activity (MDA-MB-231 [2]) | Activity (MDA-MB-231 [3]) | Activity (MDA-MB-231 [4]) | Activity (MDA-MB-231 [5])
1 | CC1(C)Oc2ccccc2C2=C1C(c1cccs1)c1cc(Cl)ccc1S2 (stereo not given) | 29 | 22.3 | > 25 | – | – | – | –
2 | CSc1ccc(C2C3=C(Oc4ccc(C[C@@H](CO)NC(=O)OC(C)(C)C)cc42)c2ccccc2OC3(C)C)cc1 (stereo not given in full) | 21.1 | 32 | > 25 | – | – | – | –
3 | CC/C(=C(\c1ccccc1)c1ccc(OCCN(C)C)cc1)c1ccccc1 [TAMOXIFEN CITRATE] | – | – | 30 | – | – | – | –
4 | COc1cccc(C2C3=C(Oc4ccc(C[C@H](N)CO)cc42)c2ccccc2OC3(C)C)c1 (stereo not given in full) | 3.5 | 2.1 | > 25 | – | – | – | –
5 | COc1cccc(C2C3=C(Oc4ccc(C[C@@H](CO)NC(=O)OC(C)(C)C)cc42)c2ccccc2OC3(C)C)c1 (stereo not given in full) | 2.9 | 29.9 | > 25 | – | – | – | –
6 | COc1ccc(C2C3=C(Sc4ccc(Cl)cc42)c2ccccc2OC3(C)C)cc1 (stereo not given) | 19.1 | 39 | > 25 | – | – | – | –
7 | COc1ccccc1C1C2=C(Oc3ccc(C[C@H](N)CO)cc31)c1ccccc1OC2(C)C (stereo not given in full) | 2.5 | 2.6 | > 25 | Active | Active | Active | Dose-dependent effect
8 | COc1ccccc1C1C2=C(Sc3ccc(Cl)cc31)c1ccccc1OC2(C)C (stereo not given) | 48.6 | 39.5 | > 25 | – | – | – | –
9 | COc1ccc2c(c1)C(c1ccc(SC)cc1)C1=C(O2)c2ccccc2OC1(C)C (stereo not given) | 17.1 | 20 | > 25 | – | – | – | –
10 | COc1ccccc1C1C2=C(Oc3ccc(C[C@H]4COC(C)(C)N4C(=O)OC(C)(C)C)cc31)c1ccccc1OC2(C)C (stereo not given in full) | 29 | 22.3 | > 25 | – | – | – | –
11 | COc1cccc2c1C(c1cccs1)C1=C(S2)c2ccccc2OC1(C)C (stereo not given) | 29 | 26.3 | > 25 | – | – | – | –
